Reference: patent publication EP0531958A1, “6-Aminoquinolones, their synthesis and their use as antibacterial agents” (MEDIOLANUM FARMACEUTICI S.P.A., priority 1991, dated 1993)
≈ marks a conversion by molar mass, not a printed value. Read-outs that look alike come from different tables or passages of the source.

Key:
Type in all cases: cell-based
Gram + = experiment: MIC test, average over the 5 gram-positive test germs; settings: 24 h
Procedure, shortened: (§1)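 Using bacterial suspensions of 1-2.10⁷ cfu/ml in peptonized water, plates of TSA bearing serial 1:2 compound dilutions were inoculated and kept at 35°C. After 24 h, the lowest concentration showing no visible growth was taken as the MIC.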

[1] = system: Acinebacter calcoloaceticus OSMPV 1130; experiment: MIC test, agar dilution with Steers multiwell inoculator; settings: TSA dishes, 24 h at 35°C, read-out: Minimum Inhibiting Concentration
Procedure, shortened: as §1

[2] = system: Enterobacter cloacae OMNF 1153; experiment: as above; settings: OMNF1153, TSA dishes, 24 h at 35°C, read-out: Minimum Inhibiting Concentration
Procedure, shortened: as §1

[3] = system: Enterobacter cloacae OMNF 1174; experiment: as above; settings: OMNF1174, TSA dishes, 24 h at 35°C, read-out: Minimum Inhibiting Concentration
Procedure, shortened: as §1

Escherichia coli 120 = experiment: as above; settings: TSA dishes, 24 h at 35°C, read-out: Minimum Inhibiting Concentration
Procedure, shortened: as §1

[4] = system: Escherichia coli ATCC 8739; experiment: as above; settings: ATCC8739, TSA dishes, 24 h at 35°C, read-out: Minimum Inhibiting Concentration
Procedure, shortened: as §1

Escherichia coli CNUR 1 = experiment: as above; settings: CNUR1, TSA dishes, 24 h at 35°C, read-out: Minimum Inhibiting Concentration
Procedure, shortened: as §1

Escherichia coli CNUR 8 = experiment: as above; settings: CNUR8, TSA dishes, 24 h at 35°C, read-out: Minimum Inhibiting Concentration
Procedure, shortened: as §1

Escherichia coli ISF 432 = experiment: as above; settings: ISF432, TSA dishes, 24 h at 35°C, read-out: Minimum Inhibiting Concentration
Procedure, shortened: as §1

[5] = system: Klebsiella pneumoniae ATCC 10031; experiment: as above; settings: ATCC10031, TSA dishes, 24 h at 35°C, read-out: Minimum Inhibiting Concentration
Procedure, shortened: as §1

Proteus vulgaris CNUR 6 = experiment: as above; settings: CNUR6, TSA dishes, 24 h at 35°C, read-out: Minimum Inhibiting Concentration
Procedure, shortened: as §1

[6] = system: Providencia stuardii CNUR 5; experiment: as above; settings: CNUR5, TSA dishes, 24 h at 35°C, read-out: Minimum Inhibiting Concentration
Procedure, shortened: as §1

[7] = system: Pseudomonas aeruginosa ATCC 9027; experiment: as above; settings: ATCC9027, TSA dishes, 24 h at 35°C, read-out: Minimum Inhibiting Concentration
Procedure, shortened: as §1

[8] = system: Pseudomonas aeruginosa CNUR 2; experiment: as above; settings: CNUR2, TSA dishes, 24 h at 35°C, read-out: Minimum Inhibiting Concentration
Procedure, shortened: as §1

[9] = system: Pseudomonas aeruginosa CNUR 4; experiment: as above; settings: CNUR4, TSA dishes, 24 h at 35°C, read-out: Minimum Inhibiting Concentration
Procedure, shortened: as §1

Shighella enteritidis = experiment: as above; settings: TSA dishes, 24 h at 35°C, read-out: Minimum Inhibiting Concentration
Procedure, shortened: as §1

[10] = system: Staphylococcus aureus ATCC 6538; experiment: as above; settings: ATCC6538, TSA dishes, 24 h at 35°C, read-out: Minimum Inhibiting Concentration
Procedure, shortened: as §1

[11] = system: Staphylococcus aureus MPR 5; experiment: as above; settings: MPR5, TSA dishes, 24 h at 35°C, read-out: Minimum Inhibiting Concentration
Procedure, shortened: as §1

[12] = system: Staphylococcus epidermidis CPHL A2; experiment: as above; settings: CPHLA2, TSA dishes, 24 h at 35°C, read-out: Minimum Inhibiting Concentration
Procedure, shortened: as §1

[13] = system: Staphylococcus epidermidis HCF Berset C.; experiment: as above; settings: TSA dishes, 24 h at 35°C, read-out: Minimum Inhibiting Concentration
Procedure, shortened: as §1

[14] = system: Streptococcus facealis LEP Br.; experiment: as above; settings: TSA dishes, 24 h at 35°C, read-out: Minimum Inhibiting Concentration
Procedure, shortened: as §1

Gram - = experiment: MIC test, average over the 15 gram-negative test germs; settings: 24 h
Procedure, shortened: as §1

CN1CCN(c2c(F)cc3c(=O)c(C(=O)O)cn4c3c2SCC4)CC1 [RUFLOXACIN, reference compound]
MIC (Gram +; geometrical average of the MIC over the 5 Gram + strains, read-out: Geometrical Average): 1.51 µg/mL | MIC (Gram +; read-out: Log (converted)): 1.52 µg/mL (≈ 4.17 µM) | MIC [1]: 2 µg/mL (≈ 5.5 µM) | MIC [2]: 1 µg/mL (≈ 2.75 µM) | MIC [3]: 0.5 µg/mL (≈ 1.38 µM) | MIC (Escherichia coli 120): 0.25 µg/mL (≈ 0.688 µM) | MIC [4]: 0.5 µg/mL (≈ 1.38 µM) | MIC (Escherichia coli CNUR 1): 0.5 µg/mL (≈ 1.38 µM) | MIC (Escherichia coli CNUR 8): 0.5 µg/mL (≈ 1.38 µM) | MIC (Escherichia coli ISF 432): 0.06 µg/mL (≈ 0.165 µM) | MIC [5]: 0.12 µg/mL (≈ 0.33 µM) | MIC (Proteus vulgaris CNUR 6): 16 µg/mL (≈ 44 µM) | MIC [6]: 2 µg/mL (≈ 5.5 µM) | MIC [7]: 8 µg/mL (≈ 22 µM) | MIC [8]: 32 µg/mL (≈ 88.1 µM) | MIC [9]: 64 µg/mL (≈ 176 µM) | MIC (Shighella enteritidis): 0.5 µg/mL (≈ 1.38 µM) | MIC [10]: 0.5 µg/mL (≈ 1.38 µM) | MIC [11]: 1 µg/mL (≈ 2.75 µM) | MIC [12]: 1 µg/mL (≈ 2.75 µM) | MIC [13]: 2 µg/mL (≈ 5.5 µM) | MIC [14]: 8 µg/mL (≈ 22 µM) | MIC (Gram -; geometrical average of the MIC over the 15 Gram - strains, read-out: Geometrical Average): 1.31 µg/mL (≈ 3.61 µM) | MIC (Gram -; mean log of the MIC over the 15 Gram - strains, read-out: Log (converted)): 1.31 µg/mL (≈ 3.61 µM)
